Target: HIF-2α HIS TAG-PASB Domain (Homo sapiens, UniProt Q99814)
Experiment: biochemical
Format: binding
Details: not given
Source text: The term “scintillation proximity assay” (SPA) refers to a homogenous assay in which light is emitted when a radiolabeled ligand is brought into close proximity to a radiosensitive bead. The assay typically contains a target protein that contains a tag (e.g., His Tag, Glutathione S-transferase Tag). The tag on the protein is used to bind the target protein to the scintillation bead. Radiolabeled ligand (e.g., labeled with tritium) that binds to the protein is now in close proximity to the bead, and when the raidolabel (e.g., tritium) decays, the high energy particle hits the bead resulting in the emission of light that is detected by a detector, such as photomultiplier tube or CCD camera. When unlabeled ligands or compounds that bind to the protein are used in the assay, they displace the radiolabeled ligand, resulting in loss of signal.
The total assay volume was about 100 μL in the following configuration: 2-μL compound in DMSO, 88 μL buffer with protein and probe and 10 μL of SPA beads. […] To each compound, 88 μL of the buffer solution was then added. […] The percent inhibition was determined and IC50 values were calculated using the Dotmatics system based on the following equation: % inhibition=[(high control−sample)/(high control−low control)]×100.

Chain of HIF-2α HIS TAG-PASB Domain (Q99814 whole entry, looked up, the tested form may be a part): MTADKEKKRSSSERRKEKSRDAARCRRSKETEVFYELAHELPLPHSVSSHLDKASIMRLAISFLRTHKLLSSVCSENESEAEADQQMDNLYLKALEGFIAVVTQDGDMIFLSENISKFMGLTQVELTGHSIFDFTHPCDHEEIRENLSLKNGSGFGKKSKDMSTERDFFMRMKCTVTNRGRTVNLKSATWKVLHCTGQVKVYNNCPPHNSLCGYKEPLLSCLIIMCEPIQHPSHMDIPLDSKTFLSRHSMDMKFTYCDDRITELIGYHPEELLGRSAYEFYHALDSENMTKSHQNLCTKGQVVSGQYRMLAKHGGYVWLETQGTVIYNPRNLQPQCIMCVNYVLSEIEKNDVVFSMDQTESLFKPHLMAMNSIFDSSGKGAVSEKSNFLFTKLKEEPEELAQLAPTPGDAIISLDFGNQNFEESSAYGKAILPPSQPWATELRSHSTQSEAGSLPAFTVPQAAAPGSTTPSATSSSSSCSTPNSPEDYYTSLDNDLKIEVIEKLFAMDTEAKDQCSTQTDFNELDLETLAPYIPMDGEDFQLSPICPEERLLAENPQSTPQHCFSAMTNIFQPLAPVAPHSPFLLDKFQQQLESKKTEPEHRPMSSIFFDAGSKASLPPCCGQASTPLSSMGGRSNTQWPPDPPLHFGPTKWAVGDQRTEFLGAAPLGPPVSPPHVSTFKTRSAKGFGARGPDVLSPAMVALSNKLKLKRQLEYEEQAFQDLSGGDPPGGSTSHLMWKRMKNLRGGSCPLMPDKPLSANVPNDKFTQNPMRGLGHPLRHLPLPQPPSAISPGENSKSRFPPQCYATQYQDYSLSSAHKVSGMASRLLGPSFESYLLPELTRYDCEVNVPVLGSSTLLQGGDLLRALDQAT

SMILES | IC50
COc1cc(F)cc(Oc2ccc3c(c2C#N)[C@@H](O)C(F)(F)S3(=O)=O)c1 [Compound 81, (R)-2,2-difluoro-5-(3-fluoro-5-methoxyphenoxy)-3-hydroxy-2,3-dihydrobenzo[b]thiophene-4-carbonitrile 1,1-dioxide] | 0.067 µM

Same assay, conditions: displacement of Compound 120 probe; mean; read-out: Mean SPA IC50

IC50 | SMILES
0.007 µM | N#Cc1cc(F)cc(Oc2ccc3c(c2Br)[C@@H](O)C(F)(F)S3(=O)=O)c1 [Compound 1, (R)-3-((4-bromo-2,2-difluoro-3-hydroxy-1,1-dioxido-2,3-dihydrobenzo[b]thiophen-5-yl)oxy)-5-fluorobenzonitrile]
0.047 µM | N#Cc1c(Oc2cc(F)cc(Cl)c2)ccc2c1[C@@H](O)CS2(=O)=O [Compound 2, (3R)-5-(3-Chloro-5-fluoro-phenoxy)-3-hydroxy-1,1-dioxo-2,3-dihydrobenzothiophene-4-carbonitrile]
4.41 µM | O=S1(=O)CCc2c1ccc(Oc1cc(F)cc(Cl)c1)c2Br [Compound 4, 4-Bromo-5-(3-chloro-5-fluorophenoxy)-2,3-dihydrobenzo[b]thiophene 1,1-dioxide]
4.86 µM | N#Cc1c(Oc2cc(F)cc(Cl)c2)ccc2c1CCS2(=O)=O [Compound 5, 5-(3-Chloro-5-fluorophenoxy)-2,3-dihydrobenzo[b]thiophene-4-carbonitrile 1,1-dioxide]
1.41 µM | O=C1c2c(ccc(Oc3cc(F)cc(Cl)c3)c2Br)S(=O)(=O)C1(F)F [Compound 8, 4-Bromo-5-(3-chloro-5-fluorophenoxy)-2,2-difluorobenzo[b]thiophen-3(2H)-one 1,1-dioxide]
1.54 µM | NC1c2c(ccc(Oc3cc(F)cc(F)c3)c2C(F)F)S(=O)(=O)C1F (stereo not shown) [Compound 20, 3-amino-4-(difluoromethyl)-5-(3,5-difluorophenoxy)-2-fluoro-2,3-dihydrobenzo[b]thiophene 1,1-dioxide]
11.8 µM | NC1CS(=O)(=O)c2ccc(Oc3cc(F)cc(F)c3)c(C(F)F)c21 (stereo not shown) [Compound 21]
5.84 µM | N#Cc1cc(F)cc(Oc2ccc3c(c2C(F)F)C(=N)C(F)S3(=O)=O)c1 (stereo not shown) [Compound 27, 3-((4-(difluoromethyl)-2-fluoro-3-imino-1,1-dioxido-2,3-dihydrobenzo[b]thiophen-5-yl)oxy)-5-fluorobenzonitrile]
1.92 µM | O=S1(=O)c2ccc(OC3CCOCC3)c(C(F)F)c2C(O)C1(F)F (stereo not shown) [Compound 54, 4-(Difluoromethyl)-2,2-difluoro-3-hydroxy-5-((tetrahydro-2H-pyran-4-yl)oxy)-2,3-dihydrobenzo[b]thiophene 1,1-dioxide]
0.17 µM | N#CN=S1(=O)c2ccc(Oc3cc(F)cc(F)c3)c(Cl)c2[C@@H](O)C1(F)F (stereo partly drawn) [Compound 66, N-((3R)-4-Chloro-5-(3,5-difluorophenoxy)-2,2-difluoro-3-hydroxy-1-oxido-2,3-dihydro-1λ^4-benzo[b]thiophen-1-ylidene)cyanamide]
0.12 µM | O=S1(=O)c2ccc(Oc3cncc(Cl)c3)c(Br)c2[C@@H](O)C1(F)F [Compound 75, (R)-4-bromo-5-((5-chloropyridin-3-yl)oxy)-2,2-difluoro-3-hydroxy-2,3-dihydrobenzo[b]thiophene 1,1-dioxide]
0.31 µM | O=S1(=O)c2ccc(Oc3cncc(F)c3)c(Br)c2[C@@H](O)C1(F)F [Compound 77, (R)-4-bromo-2,2-difluoro-5-((5-fluoropyridin-3-yl)oxy)-3-hydroxy-2,3-dihydrobenzo[b]thiophene 1,1-dioxide]
2.93 µM | Cc1cncc(Oc2ccc3c(c2Br)[C@@H](O)C(F)(F)S3(=O)=O)c1 [Compound 82, (R)-4-bromo-2,2-difluoro-3-hydroxy-5-((5-methylpyridin-3-yl)oxy)-2,3-dihydrobenzo[b]thiophene 1,1-dioxide]
0.38 µM | O=S1(=O)c2ccc(Oc3cncc(Cl)c3)c(Cl)c2[C@@H](O)C1(F)F [Compound 86, (R)-4-Chloro-5-((5-chloropyridin-3-yl)oxy)-2,2-difluoro-3-hydroxy-2,3-dihydrobenzo[b]thiophene 1,1-dioxide]

Same assay, conditions: unnumbered compounds listed by structure and name; read-out: IC50 value in SPA

SMILES | IC50
N#Cc1cc(F)cc(Oc2ccc3c(c2Cl)C(=O)C(F)(F)S3(=O)=O)c1 [3-(4-chloro-2,2-difluoro-1,1,3-trioxo-benzothiophen-5-yl)oxy-5-fluoro-benzonitrile] | 25 to 100 µM
N#Cc1cccc(Oc2ccc3c(c2C(F)F)C(=O)C(F)(F)S3(=O)=O)c1 [3-[4-(difluoromethyl)-2,2-difluoro-1,1,3-trioxo-benzothiophen-5-yl]oxybenzonitrile] | 25 to 100 µM
N#Cc1cc(F)cc(Oc2ccc3c(c2C#CCO)C(O)C(F)(F)S3(=O)=O)c1 (stereo not shown) [3-[[2,2-difluoro-3-hydroxy-4-(3-hydroxyprop-1-ynyl)-1,1-dioxo-3H-benzothiophen-5-yl]oxy]-5-fluoro-benzonitrile] | > 100 µM
N#Cc1cc(F)cc(Oc2ccc3c(c2C(F)F)C(NCC(F)F)CS3(=O)=O)c1 (stereo not shown) [3-[[3-(2,2-difluoroethylamino)-4-(difluoromethyl)-1,1-dioxo-2,3-dihydrobenzothiophen-5-yl]oxy]-5-fluoro-benzonitrile] | > 100 µM
N#CCNC1CS(=O)(=O)c2ccc(Oc3cc(F)cc(C#N)c3)c(C(F)F)c21 (stereo not shown) [3-[[3-(cyanomethylamino)-4-(difluoromethyl)-1,1-dioxo-2,3-dihydrobenzothiophen-5-yl]oxy]-5-fluoro-benzonitrile] | > 100 µM
CO/C(=C/C(F)F)c1c(Oc2cc(F)cc(C#N)c2)ccc2c1C(O)C(F)(F)S2(=O)=O (stereo not shown) [3-[[4-[(E)-3,3-difluoro-1-methoxy-prop-1-enyl]-2,2-difluoro-3-hydroxy-1,1-dioxo-3H-benzothiophen-5-yl]oxy]-5-fluoro-benzonitrile] | 25 to 100 µM
N#Cc1cc(F)cc(Oc2ccc3c(c2C(F)F)C(NCCC(=O)O)C(F)(F)S3(=O)=O)c1 (stereo not shown) [3-[[5-(3-cyano-5-fluoro-phenoxy)-4-(difluoromethyl)-2,2-difluoro-1,1-dioxo-3H-benzothiophen-3-yl]amino]propanoic acid] | > 100 µM
N#Cc1cc(F)cc(Oc2ccc3c(c2CF)C(O)CS3(=O)=O)c1 (stereo not shown) [3-fluoro-5-[[4-(fluoromethyl)-3-hydroxy-1,1-dioxo-2,3-dihydrobenzothiophen-5-yl]oxy]benzonitrile] | 25 to 100 µM
NC1c2c(ccc(OC3CCOCC3)c2C(F)F)S(=O)(=O)C1(F)F (stereo not shown) [4-(difluoromethyl)-2,2-difluoro-1,1-dioxo-5-tetrahydropyran-4-yloxy-3H-benzothiophen-3-amine] | 25 to 100 µM
O=C1CS(=O)(=O)c2ccc(Oc3ccc(F)c(F)c3)c(C(F)F)c21 [4-(difluoromethyl)-5-(3,4-difluorophenoxy)-1,1-dioxo-benzothiophen-3-one] | > 100 µM
O=C1c2c(ccc(Oc3ccc(F)c(F)c3)c2C(F)F)S(=O)(=O)C1(F)F [4-(difluoromethyl)-5-(3,4-difluorophenoxy)-2,2-difluoro-1,1-dioxo-benzothiophen-3-one] | > 100 µM
O=C1CS(=O)(=O)c2ccc(Oc3cc(F)cc(F)c3)c(Br)c21 [4-bromo-5-(3,5-difluorophenoxy)-1,1-dioxo-benzothiophen-3-one] | > 100 µM
N=S1(=O)CC(=O)c2c1ccc(Oc1cc(F)cc(F)c1)c2Br (stereo not shown) [4-bromo-5-(3,5-difluorophenoxy)-1-imino-1-oxo-benzothiophen-3-one] | > 100 µM
O=S1(=O)c2ccc(Oc3cc(F)cc(Cl)c3)c(Br)c2C(O)C12CC2 (stereo not shown) [4-bromo-5-(3-chloro-5-fluoro-phenoxy)-1,1-dioxo-spiro[3H-benzothiophene-2,1′-cyclopropane]-3-ol] | 25 to 100 µM
N#Cc1c(Oc2cc(F)cc(F)c2)ccc2c1C(O)CS2(=N)=O (stereo not shown) [5-(3,5-difluorophenoxy)-3-hydroxy-1-imino-2,3-dihydro-1H-1λ^4-benzo[b]thiophene-4-carbonitrile 1-oxide] | > 100 µM
N#Cc1cc(Oc2ccc3c(c2C(F)F)C(=O)C(F)(F)S3(=O)=O)ccc1F [5-[4-(difluoromethyl)-2,2-difluoro-1,1,3-trioxo-benzothiophen-5-yl]oxy-2-fluoro-benzonitrile] | 25 to 100 µM
N#Cc1cncc(Oc2ccc3c(c2C#N)[C@@H](O)CS3(=O)=O)c1 [5-[[(3R)-4-cyano-3-hydroxy-1,1-dioxo-2,3-dihydrobenzothiophen-5-yl]oxy]pyridine-3-carbonitrile] | 25 to 100 µM
O=S1(=O)c2ccc(Oc3cc(F)cc(F)c3)c(Br)c2[C@@H](O)C1F (stereo partly drawn) [(3R)-4-bromo-5-(3,5-difluorophenoxy)-2-fluoro-1,1-dioxo-2,3-dihydrobenzothiophen-3-ol] | > 100 µM
O=S1(=O)C[C@H](O)c2c1ccc(Oc1cncc(Cl)c1)c2Br [(3R)-4-bromo-5-[(5-chloro-3-pyridyl]oxy]-1,1-dioxo-2,3-dihydrobenzothiophen-3-ol] | > 100 µM
O=S1(=O)C[C@H](O)c2c1ccc(Oc1cncc(F)c1)c2Br [(3R)-4-bromo-5-[(5-fluoro-3-pyridyl)oxy]-1,1-dioxo-2,3-dihydrobenzothiophen-3-ol] | > 100 µM

Further lines, results first:

IC50 | SMILES
25 to 100 µM | N#Cc1c(Oc2cncc(Cl)c2)ccc2c1[C@@H](O)CS2(=O)=O [(3R)-5-[(5-chloro-3-pyridyl)oxy]-3-hydroxy-1,1-dioxo-2,3-dihydrobenzothiophene-4-carbonitrile]
25 to 100 µM | N#Cc1c(Oc2cncc(F)c2)ccc2c1[C@@H](O)CS2(=O)=O [(3R)-5-[(5-fluoro-3-pyridyl)oxy]-3-hydroxy-1,1-dioxo-2,3-dihydrobenzothiophene-4-carbonitrile]

Reference: patent US9884843B2 (Peloton Therapeutics, Inc., priority 2013, dated 2018)
